According to patent US20200216812A1, “IN VIVO METHOD FOR DIFFERENTIATING HUMAN PLURIPOTENT STEM CELLS INTO ATRIAL CARDIOMYOCYTES” (Ncardia B.V., priority 2016, published 2020):

Tests used:
Format in all cases: cell-based, human
COUP-TFII = assay: Qualitative immunoreactivity signal for COUP-TFII in hiPSC-derived cardiomyocytes (co-staining with alpha actinin); set-up: key: +++: Strongest immunoreactivity signal (i.e. fluorescence staining); ++: Moderate immunoreactivity signal (i.e. fluorescence staining); +: Lowest immunoreactivity signal (i.e. fluorescence staining); +/−: Marginal immunoreactivity signal (i.e. fluorescence staining) (i.e. very low signal, not consistently observed in all cells).; −: No immunoreactivity signal (i.e. fluorescence staining)
Protocol: (§1) The purpose of this experiment was to determine the influence of retinoic acid (RA) (i.e. all-trans retinoic acid was used in the experiments below) on differentiation of hiPSC into atrial cardiomyocytes. Specifically, the influence of all-trans retinoic acid concentration (1 microM vs 10 microM) as well as the effect of timing/duration of retinoic acid application (i.e. d2-4 vs d3-d4 vs d2-18) were tested according to the following experimental scheme:
(§2) The aqueous media consisted of the following composition: 46.5% IMDM (Gibco 21056), 0.25% Bovostar BSA, 46.5% Ham's F12 with Glutamax, 2 mM Glutamax, 450 nM alphaMTG, 0.05 mg/ml ascorbic acid, 0.5% 5000 U/ml Pen/Strep (Gibco 12070), 0.01% 1000* Trace elements mix B (Cellgro 99-176-CL), 0.1% 1000* Trace elements mix C (Cellgro 99-176-CL). The aqueous media was used in all four treatment groups, except that RA was added at different concentrations depending on the given treatment group, i.e. 10 microM for treatment group 1 and 2 and 1 microM for treatment groups 3 and 4.
(§3) For all treatment groups, CHIR-99021 was used at a concentration of 5 microM.
(§4) For all experimental groups, a combination of 5 microM of XAV-939 and 0.25 microM of IWP-L6 was used. Plating of hiPSC hiPSC were seeded in 12-well plates at density of 60.000 cells per well or a split ratio that was empirically determined to give 30-80% confluence after 4 days. Culture media was replaced after 4 days, in each treatment group, with a differentiation media as described in Table 1.
(§5) Step a): The hiPSC were contacted with 5 microM of CHIR-99021 for a period of 48 hours. At the term of step a), the media was refreshed, i.e. replaced by a media devoid of CHIR-99021 and comprising 5 microM of XAV-939 and 0.25 microM of IWP-L6.
(§6) Step b): Immediately after having refreshed the medium of step a), i.e. immediately after the 48 hours of step a) (which correspond to 2 days after having initiated step a), the cells were contacted with 5 microM of XAV-939 and 0.25 microM of IWP-L6 as well as with 10 microM of all trans retinoic acid. The cells were cultured in this media for 48 hours. At the term of step b), the media was refreshed with a media but devoid of CHIR-99021, XAV-939, and IWP-L6. The hiPSC-derived cardiomyocytes were further cultured until 14 days after initiating step a), after which they were harvested and submitted to immunohistochemical procedure for assessment of atrial phenotype (see example 3 below).
(§7) Step b): Immediately after having refreshed the medium of step a), i.e. immediately after the 48 hours of step a), the cells were contacted with 5 microM of XAV-939 and 0.25 microM of IWP-L6. At 24 hours after initiating step b) (which corresponds to 3 days after having initiated step a), 10 microM of retinoic acid was added to the media of step b). […]

COUP-TFI = assay: Qualitative immunoreactivity signal for COUP-TFI in hiPSC-derived cardiomyocytes (co-staining with alpha actinin); set-up: key: +++: Strongest immunoreactivity signal (i.e. fluorescence staining); ++: Moderate immunoreactivity signal (i.e. fluorescence staining); +: Lowest immunoreactivity signal (i.e. fluorescence staining); +/−: Marginal immunoreactivity signal (i.e. fluorescence staining) (i.e. very low signal, not consistently observed in all cells).; −: No immunoreactivity signal (i.e. fluorescence staining)
Protocol: as §1, §2, §3, §4, §5, §6, §7

hiPSC = assay: Differentiation of hiPSC into cardiomyocytes having an atrial phenotype (phenotype analysis, text summary); details: for differentiation of hiPSC into atrial cardiomyocytes (immunoreactive signal for COUP-TF1 and/or COUP-TF1): 1 microM; for differentiation of hiPSC into cardiomyocytes having an atrial phenotype (immunoreactive signal for COUP-TF1 and/or COUP-TF1): 10 microM
Protocol: as §1, §5, §6
as §6, with “step” for “step a) (which correspond to 2 days after having initiated step”, “of IWP-L6. At 24 hours after initiating step b) (which corresponds to 3 days after having initiated step a),” for “of IWP-L6 as well as with”, “of” for “of all trans”, “retinoic acid was added to the media of step b).” for “retinoic acid.”, “for 24” for “for 48”
as §7, with “1” for “10”, “b). The cells were cultured in this media for 24 hours. At the term of step b), the media was refreshed with a media but devoid of CHIR-99021, XAV-939, and IWP-L6.” for “b).”

[1] = treatment group 1: 10 microM RA/d 2-4
[2] = treatment group 2: 10 microM RA/d 3-4
[3] = treatment group 3: 1 microM RA/d 3-4
[4] = treatment group 4: 1 microM RA/d 2-14 + 4

CC1=C(/C=C/C(C)=C/C=C/C(C)=C/C(=O)O)C(C)(C)CCC1 [RA, all-trans retinoic acid]
intensity of the immunoreactivity signal for COUP-TFII (COUP-TFII; [1]): +++
intensity of the immunoreactivity signal for COUP-TFII (COUP-TFII; [2]): ++
intensity of the immunoreactivity signal for COUP-TFII (COUP-TFII; [3]): −
intensity of the immunoreactivity signal for COUP-TFII (COUP-TFII; [4]): +
intensity of the immunoreactivity signal for COUP-TFI (COUP-TFI; [1]): ++
intensity of the immunoreactivity signal for COUP-TFI (COUP-TFI; [2]): +
intensity of the immunoreactivity signal for COUP-TFI (COUP-TFI; [3]): −
intensity of the immunoreactivity signal for COUP-TFI (COUP-TFI; [4]): +/−
differentiation of hiPSC into atrial cardiomyocytes (immunoreactive signal for COUP-TF1 and/or COUP-TF1) (hiPSC; added 2 days (48 hours) after initiating step a, duration 12 days (group 4)): low immunoreactive signal
differentiation of hiPSC into atrial cardiomyocytes (immunoreactive signal for COUP-TF1 and/or COUP-TF1) (hiPSC; added 3 days (72 hours) after initiating step a, duration 24 hours (group 3)): marginal or no immunoreactive signal
differentiation of hiPSC into cardiomyocytes having an atrial phenotype (immunoreactive signal for COUP-TF1 and/or COUP-TF1) (hiPSC; added 2 days (48 hours) after initiating step a, duration 48 hours (group 1)): strongest immunoreactive signal
differentiation of hiPSC into cardiomyocytes having an atrial phenotype (immunoreactive signal for COUP-TF1 and/or COUP-TF1) (hiPSC; added 3 days (72 hours) after initiating step a, duration 24 hours (group 2)): moderate immunoreactive signal
